# Literature values, collected in US8394825B2, “Compound” (Sterix Limited, priority 2007, dated 2013).
# Columns and labels:
# uterotrophic activity = conditions: cited from earlier work; for oestrogenicity: rat, in vivo
# E1-STS [1] = target: T1, E1-STS (Homo sapiens, UniProt P08842); conditions: cited from earlier work
# T1 sequence (P08842 22-583): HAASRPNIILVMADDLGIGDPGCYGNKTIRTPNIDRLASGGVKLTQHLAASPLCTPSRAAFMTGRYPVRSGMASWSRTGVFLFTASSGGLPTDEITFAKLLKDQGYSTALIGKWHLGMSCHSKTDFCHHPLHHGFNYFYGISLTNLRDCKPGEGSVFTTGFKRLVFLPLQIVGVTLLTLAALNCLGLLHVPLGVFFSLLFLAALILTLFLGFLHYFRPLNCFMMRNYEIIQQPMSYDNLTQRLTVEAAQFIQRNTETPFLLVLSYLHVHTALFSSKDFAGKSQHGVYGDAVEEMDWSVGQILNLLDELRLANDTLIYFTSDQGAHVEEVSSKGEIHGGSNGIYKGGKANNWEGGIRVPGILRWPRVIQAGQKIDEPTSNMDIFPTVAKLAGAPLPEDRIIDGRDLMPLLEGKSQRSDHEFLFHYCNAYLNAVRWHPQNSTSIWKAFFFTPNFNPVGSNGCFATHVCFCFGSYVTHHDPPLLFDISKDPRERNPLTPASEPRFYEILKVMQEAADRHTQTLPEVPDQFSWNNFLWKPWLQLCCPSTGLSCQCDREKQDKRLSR
# [2] = cited from earlier work
# E1-STS [3] = target: T1, E1-STS; design: endogenous in cells; host or cells: MCF-7 cells (intact); conditions: intact MCF-7 cells, 0.1 nM; cited from earlier work
compound,measurement,setting,value
COc1cc2c(cc1OS(N)(=O)=O)CC[C@@H]1[C@@H]2CC[C@]2(C)C(=O)CC[C@@H]12 [2-methoxyoestrone-3-O-sulphamate],oestrogenicity,uterotrophic activity,devoid of oestrogenicity
same,potency as steroid sulphatase inhibitor relative to EMATE,E1-STS [1],equipotent with EMATE
"C[C@]12CC[C@@H]3c4ccc(OS(=O)(=O)O)cc4CC[C@H]3[C@@H]1CCC2=O [E1S, oestrone sulphate]",half-life in blood,[2],10 to 12 h
"CC12CCC3c4ccc(OS(N)(=O)=O)cc4CCC3C1CCC2=O (centres unmarked) [EMATE, oestrone-3-sulphamate]",oestrogenicity,uterotrophic activity,potent oestrogenic properties
same,oral uterotrophic activity relative to estradiol,"uterotrophic activity; rats, oral",100 times
same,inhibition of E1-STS activity,E1-STS [3],more than 99%
same,mode of E1-STS enzyme inhibition (inactivation),E1-STS [1],time- and concentration-dependent manner
oestrone-3-S-sulphamate,mode of E1-STS enzyme inhibition (inactivation),E1-STS [1],weaker non-time-dependent inactivators
